Data from patent US20230048678A1, “ICAN DERIVATIVES FOR ANTIFUNGAL USE” (DEBRECENI EGYETEM, priority 2019, published 2023).

Tests used:
Test in all cases: CLSI M27-A3 broth microdilution on Candida isolates (Table 2)
Format in all cases: cell-based
C. albicans isolates = system: C. albicans isolates
Protocol: (§1) The tested C. albicans, C. tropicalis, C. parapsilosis, C. glabrata and C. krusei ATCC strains and clinical isolates are listed in Table 2. MICs were determined according to the CLSI M27-A3 [22]. Antifungal agents were dissolved in 100% DMSO and diluted further in RPMI-1640 (with L-glutamine but without bicarbonate) (Sigma, Budapest, Hungary), and buffered to pH 7.0 with 0.165 M morpholinopropanesulfonic acid (MOPS; Sigma, Budapest, Hungary). The final concentration ranges used for AMB and ICAN derivatives were 0.125 to 4 μg/ml and 0.04 to 20 μg/ml, respectively. Yeast cell suspensions were prepared in RPMI 1640 medium and were adjusted to give a final inoculum concentration of 0.5×10^3 to 2.5×10^3 cells/ml. MICs were read visually after 48-h incubation at 35° C. using the partial (50%) inhibition (for ICAN derivatives) (PI) and total inhibition (for AMB and ICAN derivatives) (TI) criteria. MICs were determined at least twice. For amphotericin B isolates with MIC values of ≤2 mg/L were considered wild-types. [Pfaller M A, 2012]

C. glabrata isolates = system: C. glabrata isolates
Protocol: as §1

C. krusei isolates = system: C. krusei isolates
Protocol: as §1

C. parapsilosis isolates = system: C. parapsilosis isolates
Protocol: as §1

C. tropicalis isolates = system: C. tropicalis isolates
Protocol: as §1

In the case of `[C-]#[N+]c1cccc2c(N(C)C)cccc12` [DIMICAN, N,N-dimethyl-1-amino-5-isocyanonaphthalene], the MICPI (C. albicans isolates; isolate 456) is reported as ≤0.04 µg/mL, the MICTI (C. albicans isolates; isolate 456) is reported as 0.6 µg/mL and the MICPI (C. albicans isolates; isolate 665) is reported as ≤0.04 µg/mL. For the same molecule, the MICTI (C. albicans isolates; isolate 665) was 0.6 µg/mL, the MICPI (C. albicans isolates; isolate 685) was ≤0.04 µg/mL and the MICTI (C. albicans isolates; isolate 685) was 0.6 µg/mL. For the same molecule, the MICPI (C. albicans isolates; isolate 720) was ≤0.04 µg/mL, the MICTI (C. albicans isolates; isolate 720) was 0.6 µg/mL and the MICPI (C. albicans isolates; isolate 963) was ≤0.04 µg/mL. For the same molecule, the MICTI (C. albicans isolates; isolate 963) was 0.6 µg/mL, the MICPI (C. albicans isolates; isolate 1544) was ≤0.04 µg/mL and the MICTI (C. albicans isolates; isolate 1544) was 0.6 µg/mL. For the same molecule, the MICPI (C. albicans isolates; isolate 3666) was ≤0.04 µg/mL, the MICTI (C. albicans isolates; isolate 3666) was 0.6 µg/mL and the MICPI (C. albicans isolates; isolate 8658) was ≤0.04 µg/mL. For the same molecule, the MICTI (C. albicans isolates; isolate 8658) was 0.6 µg/mL, the MICPI (C. albicans isolates; isolate ATCC 10231) was ≤0.04 µg/mL and the MICTI (C. albicans isolates; isolate ATCC 10231) was 0.3 µg/mL. For the same molecule, the MICPI (C. glabrata isolates; isolate 14408) was ≤0.04 µg/mL, the MICTI (C. glabrata isolates; isolate 14408) was 0.08 µg/mL and the MICPI (C. glabrata isolates; isolate 14559) was ≤0.04 µg/mL. For the same molecule, the MICTI (C. glabrata isolates; isolate 14559) was 0.3 µg/mL, the MICPI (C. glabrata isolates; isolate 22394) was ≤0.04 µg/mL and the MICTI (C. glabrata isolates; isolate 22394) was 0.3 µg/mL. The MICPI (C. glabrata isolates; isolate 23429) was ≤0.04 µg/mL, the MICTI (C. glabrata isolates; isolate 23429) was 0.3 µg/mL and the MICPI (C. glabrata isolates; isolate 23481) was 0.08 µg/mL. The MICTI (C. glabrata isolates; isolate 23481) was 1.25 µg/mL, the MICPI (C. glabrata isolates; isolate 27643) was 0.08 µg/mL and the MICTI (C. glabrata isolates; isolate 27643) was 0.3 µg/mL. For the same molecule, the MICPI (C. glabrata isolates; isolate 28557) was ≤0.04 µg/mL, the MICTI (C. glabrata isolates; isolate 28557) was 0.6 µg/mL and the MICPI (C. glabrata isolates; isolate ATCC 90030) was 0.15 µg/mL. For the same molecule, the MICTI (C. glabrata isolates; isolate ATCC 90030) was 0.3 µg/mL, the MICPI (C. krusei isolates; isolate 749) was 0.08 µg/mL and the MICTI (C. krusei isolates; isolate 749) was 0.08 µg/mL. The MICPI (C. krusei isolates; isolate 1853) was 0.08 µg/mL, the MICTI (C. krusei isolates; isolate 1853) was 0.3 µg/mL and the MICPI (C. krusei isolates; isolate 4364) was ≤0.04 µg/mL. The MICTI (C. krusei isolates; isolate 4364) was 0.15 µg/mL, the MICPI (C. krusei isolates; isolate 5029) was ≤0.04 µg/mL and the MICTI (C. krusei isolates; isolate 5029) was 0.08 µg/mL. It also gave an MICPI (C. krusei isolates; isolate 5072) of 0.08 µg/mL, an MICTI (C. krusei isolates; isolate 5072) of 0.3 µg/mL and an MICPI (C. krusei isolates; isolate 25504) of 0.08 µg/mL. The MICTI (C. krusei isolates; isolate 25504) was 0.3 µg/mL, the MICPI (C. krusei isolates; isolate 34987) was ≤0.04 µg/mL and the MICTI (C. krusei isolates; isolate 34987) was 0.08 µg/mL. The MICPI (C. krusei isolates; isolate ATCC 6258) was 0.15 µg/mL, the MICTI (C. krusei isolates; isolate ATCC 6258) was 0.3 µg/mL and the MICPI (C. parapsilosis isolates; isolate 4133) was 0.08 µg/mL. It also gave an MICTI (C. parapsilosis isolates; isolate 4133) of 0.08 µg/mL, an MICPI (C. parapsilosis isolates; isolate 9613) of 0.15 µg/mL and an MICTI (C. parapsilosis isolates; isolate 9613) of 0.15 µg/mL. The MICPI (C. parapsilosis isolates; isolate 10252) was ≤0.04 µg/mL, the MICTI (C. parapsilosis isolates; isolate 10252) was 0.08 µg/mL and the MICPI (C. parapsilosis isolates; isolate 18154) was 0.08 µg/mL. For the same molecule, the MICTI (C. parapsilosis isolates; isolate 18154) was 0.6 µg/mL, the MICPI (C. parapsilosis isolates; isolate 27001) was ≤0.04 µg/mL and the MICTI (C. parapsilosis isolates; isolate 27001) was 0.3 µg/mL. The MICPI (C. parapsilosis isolates; isolate ATCC 22019) was 0.15 µg/mL, the MICTI (C. parapsilosis isolates; isolate ATCC 22019) was 0.6 µg/mL and the MICPI (C. tropicalis isolates; isolate 579) was 0.08 µg/mL. It also gave an MICTI (C. tropicalis isolates; isolate 579) of 0.6 µg/mL, an MICPI (C. tropicalis isolates; isolate 622) of 0.08 µg/mL and an MICTI (C. tropicalis isolates; isolate 622) of 0.3 µg/mL. The MICPI (C. tropicalis isolates; isolate 1776) was 0.08 µg/mL, the MICTI (C. tropicalis isolates; isolate 1776) was 0.3 µg/mL and the MICPI (C. tropicalis isolates; isolate 2467) was 0.15 µg/mL. The MICTI (C. tropicalis isolates; isolate 2467) was 1.25 µg/mL, the MICPI (C. tropicalis isolates; isolate 3014) was 0.08 µg/mL and the MICTI (C. tropicalis isolates; isolate 3014) was 0.6 µg/mL. The MICPI (C. tropicalis isolates; isolate 5115) was 0.08 µg/mL, the MICTI (C. tropicalis isolates; isolate 5115) was 1.25 µg/mL and the MICPI (C. tropicalis isolates; isolate 5806) was 0.08 µg/mL. For the same molecule, the MICTI (C. tropicalis isolates; isolate 5806) was 0.15 µg/mL, the MICPI (C. tropicalis isolates; isolate ATCC 750) was 0.15 µg/mL and the MICTI (C. tropicalis isolates; isolate ATCC 750) was 1.25 µg/mL.
